In one assay the target is MCH receptor (Homo sapiens, UniProt Q99705). Kind of assay: High throughput functional screening FLIPR/FDSS6000: inhibition of MCH-evoked intracellular Ca2+ changes. The class given is cell-based. The settings on record: class by percent of control at 10^-7 M or IC50. A digest of the protocol: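 Antagonism was measured as inhibition of calcium responses to 50 nM MCH, monitored 290 s at ex 488/em 530 nm on FLIPR or FDSS6000. Beforehand, cells bearing a constitutively active MCH receptor received Fluo4-AM (4 μM, 1 h, 37 °C) with probenecid, and test compound for 3 min.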
On to `CN(C)c1nc(N[C@H]2CC[C@@H](CNC(=S)NCc3ccc(Cl)cc3Cl)CC2)nc2ccccc12` [compound 718], for which the class is on record as 2 (Class 2: The value of percent of control at 10^−7 M was from 40% to 60% or the value of IC50 was from 50 nM to 200 nM.).

As to `CN(C)c1nc(N[C@H]2CC[C@@H](CNC(=S)Nc3ccc(Sc4ccc([N+](=O)[O-])cc4)cc3)CC2)nc2ccccc12` [compound 741], the class is listed as 3 (Class 3: The value of percent of control at 10^−7 M was more than 60% or the value of IC50 was more than 200 nM.).

As to `CN(C)c1nc(N[C@H]2CC[C@@H](CNC(=O)Nc3ccccc3I)CC2)nc2ccccc12` [compound 500, N-[(cis-4-{[4-(dimethylamino)quinazolin-2-yl]amino}cyclohexyl)methyl]-N′-(2-iodophenyl)urea], the class is 1 (Class 1: The value of percent of control at 10^−7 M was less than 40% or the value of IC50 was less than 50 nM.).

In the case of `CN(C)c1nc(N[C@H]2CC[C@@H](NC(=S)NCCc3ccccc3)CC2)nc2ccccc12` [compound 203], the class is listed as 3 (Class 3: The value of percent of control at 10^−7 M was more than 60% or the value of IC50 was more than 200 nM.).

With `CN(C)c1nc(N[C@H]2CC[C@@H](CNC(=O)Nc3cccc(Oc4ccccc4)c3)CC2)nc2ccccc12` [compound 534], the class was 3 (Class 3: The value of percent of control at 10^−7 M was more than 60% or the value of IC50 was more than 200 nM.).

As for `CCC[C@H]1CC[C@H](c2ccc(NC(=S)NC[C@H]3CC[C@@H](Nc4nc(N(C)C)c5ccccc5n4)CC3)cc2)CC1` [compound 601], the class was 3 (Class 3: The value of percent of control at 10^−7 M was more than 60% or the value of IC50 was more than 200 nM.).

`CCOC(=O)c1cccc(NC(=O)NC[C@H]2CC[C@@H](Nc3nc(N(C)C)c4ccccc4n3)CC2)c1` [compound 430]: the class is 3 (Class 3: The value of percent of control at 10^−7 M was more than 60% or the value of IC50 was more than 200 nM.).

Turning to `CCOC(=O)[C@H](Cc1ccccc1)NC(=O)NC[C@H]1CC[C@@H](Nc2nc(N(C)C)c3ccccc3n2)CC1` (relative stereo) [compound 756], the class is listed as 3 (Class 3: The value of percent of control at 10^−7 M was more than 60% or the value of IC50 was more than 200 nM.).

The same assay, now with this note: class by percent of control at 10^-7 M or by IC50; read-out: class.
Turning to `COC(=O)c1ccccc1NC(=O)N[C@H]1CC[C@@H](Nc2nc(N(C)C)c3ccccc3n2)CC1` [compound 70, metyl 2-({[4(cis-4-{[-(dimethylamino)quinazolin-2-yl]amino}cyclohexyl)amino]carbonyl}amino)benzoate], the IC50 is more than 200 nM.

In the case of `CN(C)c1nc(N[C@H]2CC[C@@H](NC(=O)Nc3c(F)cccc3F)CC2)nc2ccccc12` [compound 25], the IC50 is more than 200 nM.

In the case of `CCOC(=O)C(CC(C)C)NC(=O)NC1CCC(Nc2nc(N(C)C)c3ccccc3n2)CC1` (stereo not drawn) [compound 34, ethyl N-{[(cis-4-{[4-(dimethylamino)quinazolin-2-yl]amino}cyclohexyl)amino]carbonyl}lucinate], the IC50 was less than 50 nM.

Turning to `CCCCCCNC(=S)N[C@H]1CC[C@@H](Nc2nc(N(C)C)c3ccccc3n2)CC1` [compound 176, N-(cis-4-{[4-(dimethylamino)quinazolin-2-yl]amino}cyclohexyl)-N′-hexylthiourea], the IC50 is 50 to 200 nM.

`COc1cccc(NC(=O)N[C@H]2CC[C@@H](Nc3nc(N(C)C)c4ccccc4n3)CC2)c1` [compound 46, N-(cis-4-{[4-(dimethylamino)quinazolin-2-yl]amino}cyclohexyl)-N′-(3-methoxyphenyl)urea]: the IC50 lay in the range of 50 to 200 nM.

Still in this assay, the particulars now being: class by percent of control at 10^−7 M or by IC50; read-out: class.
In the case of `CN(C)c1nc(N[C@H]2CC[C@@H](C(=O)NCc3ccccc3)CC2)nc2ccccc12` [Example 1135, cis-N-benzyl-4-{[4-(dimethylamino)quinazolin-2-yl]amino}cyclohexanecarboxamide], the IC50 was less than 50 nM.

Turning to `CN(C)c1nc(N[C@H]2CC[C@@H](CNC(=O)c3ccc(C(F)(F)F)cc3F)C2)nc2ccccc12` [Example 1125, N-[((1R,3S)-3-{[4-(dimethylamino)quinazolin-2-yl]amino}-cyclopentyl)methyl]-2-fluoro-4-(trifluoromethyl)benzamide], the IC50 was more than 200 nM.

Source of the values: patent US20070010671A1, “Novel quinazoline derivatives and methods of treatment related to the use thereof” (priority 2003, published 2007).
